Data on three substances can be found in patent publication US20030105045A1, “Artificial transcriptional factors and methods of use” (priority 2000, published 2003).

Series [1] has as its system ATF assay template containing five ATF binding sites in the promoter. Put plainly: In vitro run-off transcription assay with HeLa crude nuclear extract, ATF assay template. It counts as biochemical. The conditions noted are these: for level/strength of transcriptional activation in words (compared with GAL4-VP16 or basal): ATF assay template. The text has this:
(§1) Two 26-base oligonucleotides having the sequence of SEQ. ID NO: 9 and SEQ. ID NO: 10 were annealed and ligated to yield a series of double-stranded DNA fragments containing multiple binding sites for triple-helix formation. A fragment containing 5 copies of the site as shown in the duplex of SEQ ID NO: 9 and SEQ ID NO: 10 was purified by agarose gel electrophoresis and inserted into the HindIII restriction site in the polylinker of an embodiment of the G5E4T series of transcription templates.
(§2) In FIG. 3A, the control template contains […] five GAL4 and five ATF binding sites incorporated in the promoter at −53 and −155 bp relative to the +1 transcription start site, respectively; and in FIG. 3B the ATF assay template contains five ATF binding sites incorporated at −65 bp.
The resulting plasmids were linearized by digestion with EcoRI, purified and the linear templates were stored in ultra-pure water at −20° C. The transcription assay was initiated by incubation of 200 ng of linearized transcription templates with ATFs in the binding buffer containing 10 mM Tris pH 8, 40 mM MgCl2 and 100 mM KCl at room temperature for 24 hours. The total volume of binding reaction was 5 microliters. After binding reaction, salt and buffer conditions were adjusted by the addition of 5 microliters of water, 6 microliters of 1×HeLa buffer (20 mM HEPES pH 7.9, 100 mM KCl, 0.2 mM EDTA, 0.5 mM DTT, 20% glycerol) and 5 microliters of HeLa crude nuclear extract (Promega, Madison Wis.). An aliquot of GAL4-VP16 protein (1 microliter total) was added to the control templates and all reactions were pre-incubated for 10 minutes at 30 degrees C. The transcription was initiated by the addition of 1 microliter of a mixture of ribonucleotide triphosphates (ATP, CTP, GTP, 10 mM each) and 0.5 microliters of ^32P-alpha-UTP (NEN, Boston, Mass.). After further incubation at 30° C. for 30 minutes all transcription reactions were terminated by the addition of 100 microliters of stop buffer (0.5 M sodium acetate, 0.2% SDS, 10 mM EDTA, 1 microgram/ml glycogen, 1 microgram/ml Proteinase K). The reactions were vortexed, incubated at 37° C. for 10 minutes, extracted with phenol/chloroform, and precipitated with 250 microliters of ice-cold ethanol. The pellets were dissolved in 20 microliters of standard denaturing formamide/dye mix and were loaded and run on a denaturing 6% polyacrylamide gel.
(§3) The templates for in vitro transcription were made by inserting 5 direct repeats of a triple helix binding DNA sequence having a sequence of SEQ ID NO: 11 (5′[…]3′) into the Hind III restriction site in the polylinker of the GnE4T series of transcription templates (Lin, Y. S. et al., Cell 5A: 659-664 (1988)). […] The quantitation of signals was performed with Fuji MacBAS software.

The test system of series [2] is control template containing five GAL4 binding sites. Put plainly: In vitro run-off transcription assay with HeLa crude nuclear extract, control template. The series is classed as biochemical. As to conditions: data not shown.
From the text: as §1, §2
The resulting plasmids were linearized by digestion with EcoRI, purified and the linear templates were stored in ultra-pure water at −20° C. […]
as §3

In series [3] the test system is transcription template with 5 copies of ATF binding sites upstream of minimal HSV thymidine kinase promoter driving CAT reporter gene, BHK-21 cells. The experiment in a line: Transient cotransfection CAT reporter assay in BHK-21 cells, template with ATF binding sites. The series is classed as cell-based. As to conditions: 50 nM ATFs, 1 microgram plasmid, LipofectAMINE, harvested 48 hours after transfection. An excerpt: The ability of ATFs to activate transcription in vivo was examined by transient cotransfection assays in BHK-21 tissue culture cells. As a control template, a reporter construct containing the minimal HSV thymidine kinase promoter driving the expression of chloramphenicol acetyl transferase (CAT) reporter gene was used. The transcription template was constructed by incorporating the oligonucleotide with 5 copies of ATF binding sites in between the HindIII and BamHI restriction sites of the polylinker upstream of the control template promoter (FIG. 6A). The transfection mixture contained 1 microgram of the plasmid DNA and 50 nM ATFs. Transfections were performed by using polycationic lipid LipofectAMINE (Life Technologies). Cells were harvested 48 hours after transfection and CAT assays were performed using FAST CAT (Molecular Probes, Inc.) as substrate, and visualized and quantitated on a Fluorimager (Molecular Dynamics). Each reporter construct shown in FIG. 6A was transfected into cells with and without ATF molecules and the activation signal was measured with standard methods.

The subject of series [4] is GAL4 DNA-binding domain fusion. As to conditions: cited from earlier work.

In the case of “ATF(29): 22-mer TFO (SEQ ID NO:5), 5′ polyglycol linker, crosslinker-coupled 29 amino acid VP16 peptide (SEQ ID NO:8) (chain 1 ttgtggtgggtggggtgtgggt; chain 2 CGSDALDDFDLDMLGSDALDDFDLDMLGS; polyglycol linker, crosslinker conjugation; synthetic composition useful as artificial transcriptional factor)”, the “level/strength of transcriptional activation in words (compared with GAL4-VP16 or basal)” value in series [1] (FIG. 4 and FIG. 5) is “comparable to the level that could be obtained with GAL4-VP16”; in series [1] (FIG. 4 and FIG. 5, listed as ATF), “equal to, if not higher than”. Moreover, in series [1] (further increase in concentration leads to diminishing activation), the “ATF concentrations at which these levels of activation (30-40 fold) are obtained” value was in the range of 2 to 40 nM. Also, the “activation of transcription above basal level” value in series [1] (linearized template with five ATF binding sites, quantitation of 250 base RNA transcript) was 30-40 fold. For the same substance, the “activation of transcription from control templates or other templates lacking ATF binding sites” value in series [2] is given as “does not activate transcription”. For the same substance, in series [3], the “transcriptional activation above the basal level” value amounted to 5 fold.

“CGSDALDDFDLDML (synthetic composition useful as artificial transcriptional factor) [14-mer peptide derived from VP16]”: in series [4] (Seipel et al.), the “activity when fused to the GAL4 DNA binding domain through recombinant DNA techniques” value was “inactive”.

As for “CGSDALDDFDLDMLGSDALDDFDLDMLGS (synthetic composition useful as artificial transcriptional factor) [SEQ ID NO: 8]”, the “activity retained relative to full-length VP 16 when fused to the GAL4 DNA-binding domain” value in series [4] (Seipel et al. 1992, Nyanguile et al. 1997) was “about 70%”.
